{"source": "paper PMC4393083", "about": "“Antiviral Activity and Possible Mechanism of Action of Constituents Identified in Paeonia lactiflora Root toward Human Rhinoviruses” (PLoS ONE, 2015)", "key": {"HRV-4 [1]": {"system": "HRV-4", "assay": "Real-time qRT-PCR of HRV-4 RNA replication in MRC5 cells", "assay_type": "cell-based, human rhinovirus", "conditions": "MRC5, 2 days after infection; 100 μg/mL PA, 20 μg/mL PGG; vs untreated cultures", "procedure": "(§1) To evaluate the level of gene expression, real-time qRT-PCR with SYBR Green dye was carried out. HRV-2 or HRV-4 infected and noninfected cultures of MRC5 monolayers grown in 25 cm^2 cell culture flasks (Corning, NY) were treated with 100 μg/mL PA or 20 μg/mL PGG. After incubation at 37°C and 5% CO2 for 2 days, total RNA was extracted from the culture cells using the RNeasy Plus Mini Kit (Qiagen, Hilden, Germany) according to the manufacturer’s instructions. Contaminated genomic DNA was removed using RQ1 RNase-free DNase (Promega, Madison, WI). Complementary DNA (cDNA) was synthesized using 1 μg total RNA through a reverse transcription reaction using the SuperScript First-Strand Synthesis Kit (Invitrogen, Carlsbad, CA). […] The PCR conditions were as follows: 50°C for 2 min, 95°C for 10 min, and then 50 cycles of 95°C for 15 s and either 60°C [β2-microglobulin (B2M), interleukin (IL)-6, IL-8, LDLR, ICAM-1, HRV-2, and HRV-4] or 58°C (B2M and IL-1β) or 55°C [B2M, Toll-like receptor 3 (TLR3), tumor necrosis factor (TNF), and interferon beta (IFNβ)] for 30 s. mRNA expression level of target gene was normalized to mRNA expression level for the housekeeping gene B2M and analyzed by the 2^–ΔΔCT method using StepOne Software v2.1 and DataAssist Software (Applied Biosystems). […]"}, "ICAM-1": {"system": "ICAM-1", "assay": "ICAM-1 mRNA expression, qRT-PCR in MRC5", "assay_type": "cell-based, human", "conditions": "MRC5, 2 days after HRV-2 or HRV-4 infection; 100 μg/mL PA, 20 μg/mL PGG", "procedure": "as §1, with “WI).” for “WI). Complementary DNA (cDNA) was synthesized using 1 μg total RNA through a reverse transcription reaction using the SuperScript First-Strand Synthesis Kit (Invitrogen, Carlsbad, CA).”\n(§2) The expressions of ICAM-1 and LDLR were examined using real-time qRT-PCR and Western blot. […] The concentrations of ICAM-1 in the test samples were determined from OD values using standard curve of each assay."}, "LDLR [2]": {"system": "LDLR", "assay": "Western blot of LDLR in MRC5 cells", "assay_type": "cell-based, human", "conditions": "MRC5, 2 days, regardless of HRV-2 infection, similar with HRV-4, 100 μg/mL PA, 20 μg/mL PGG", "procedure": "(§3) Cell lysates from infected and noninfected MRC5 cultures 2 days after incubation with or without test compounds were obtained in RIPA buffer and 1% mammalian cell protease inhibitor cocktail according to the manufacturer’s instructions. Working dilutions of primary antibodies were dilulted 500, 2000, and 1000 times for anti-ICAM-1, anti-LDLR, and anti-actin antibodies, respectively. Working dilutions of secondary antibody was 1000, 1000, and 800 for anti-ICAM-1, anti-LDLR, and anti-actin, respectively. Ten micrograms of cell lysates from different treatments were mixed with an equal volume of 5× Laemmli sample buffer, boiled in 10 min, and resolved by electrophoresis in 11% sodium dodecyl sulfate-polyacrylamide gels (SDS-PAGE). […] Differences in protein expressions were quantified using a Molecular Imager Gel Doc XR system (Bio-Rad, Hercules, CA) and normalized to actin expression on the same membrane.\n(§4) The expressions of ICAM-1 and LDLR were examined using real-time qRT-PCR and Western blot. Furthermore, concentrations of soluble ICAM-1 (sICAM-1) in cell-free culture supernatants 2 days after treatment were measured using a sICAM-1 ELISA Kit (Pierce Biotechnology, Rockford, IL) according to the manufacturer’s instructions. […] The concentrations of ICAM-1 in the test samples were determined from OD values using standard curve of each assay."}, "HRV-4 [3]": {"system": "HRV-4", "assay": "Time-of-addition assay, HRV-4 in MRC5 cells", "assay_type": "cell-based", "conditions": "Human rhinovirus sp.", "procedure": "The time-of-addition effects of all compounds on HRV-4 were examined according to the method of Choi et al.. In brief, monolayers of MRC5 cells were seeded onto a 96-well culture plate as stated previously. After washing with PBS, 100 μg/mL PA, 20 μg/mL PGG, and 100 μg/mL ribavirin were separately added onto the cells at either before (–1 h), during (0 h), or after (1, 2, 3, 4, 6, 8, 12, 16, 20, and 24 h) HRV-4 infection at 37°C. After 2 days, MTT test and antiviral activity were carried out as stated previously."}, "IL-1β": {"system": "IL-1β", "assay": "IL-1β mRNA expression, qRT-PCR in MRC5", "assay_type": "cell-based, human", "conditions": "MRC5, 2 days after HRV-2 or HRV-4 infection; 100 μg/mL PA, 20 μg/mL PGG", "procedure": "as §1"}, "TLR3": {"system": "TLR3", "assay": "TLR3 mRNA expression, qRT-PCR in MRC5", "assay_type": "cell-based, human", "conditions": "MRC5, 2 days after infection; 100 μg/mL PA, 20 μg/mL PGG", "procedure": "as §1"}, "LDLR [4]": {"system": "LDLR", "assay": "LDLR mRNA expression, qRT-PCR in MRC5", "assay_type": "cell-based, human", "conditions": "MRC5, 2 days after HRV-2 or HRV-4 infection; 100 μg/mL PA, 20 μg/mL PGG", "procedure": "as §1, with “WI).” for “WI). Complementary DNA (cDNA) was synthesized using 1 μg total RNA through a reverse transcription reaction using the SuperScript First-Strand Synthesis Kit (Invitrogen, Carlsbad, CA).”\nas §2"}, "HRV-2": {"system": "HRV-2", "assay": "Real-time qRT-PCR of HRV-2 RNA replication in MRC5 cells", "assay_type": "cell-based, human rhinovirus", "conditions": "MRC5, 2 days after infection; 100 μg/mL PA, 20 μg/mL PGG; vs untreated cultures", "procedure": "as §1"}, "sICAM-1": {"system": "sICAM-1", "assay": "Soluble ICAM-1 ELISA in MRC5 culture supernatants", "assay_type": "cell-based, human", "conditions": "HRV-2 or HRV-4 infected MRC5 cultures, 100 μg/mL PA, 20 μg/mL PGG", "procedure": "The expressions of ICAM-1 and LDLR were examined using real-time qRT-PCR and Western blot. Furthermore, concentrations of soluble ICAM-1 (sICAM-1) in cell-free culture supernatants 2 days after treatment were measured using a sICAM-1 ELISA Kit (Pierce Biotechnology, Rockford, IL) according to the manufacturer’s instructions. The sensitivities of the assays were 0.3 ng/mL. The concentrations of ICAM-1 in the test samples were determined from OD values using standard curve of each assay."}, "mICAM-1": {"system": "mICAM-1", "assay": "Western blot of mICAM-1 in MRC5 cells", "assay_type": "cell-based, human", "conditions": "MRC5, 2 days, HRV-2 or HRV-4, 100 μg/mL PA, 20 μg/mL PGG", "procedure": "as §3, §4"}, "[5]": {"conditions": "HRV4, 0 h, 100 μg/mL PA, 20 μg/mL PGG, 100 μg/mL ribavirin, read-out: inhibition of HRV-4 infection, added at virus inoculation (0 h)"}, "[6]": {"conditions": "HRV4, read-out: inhibition of HRV-4 infection, added prior (–1 h) or post (1–24 h) infection, 100 μg/mL PA, 20 μg/mL PGG"}}, "note": "Read-outs that look alike come from different tables or passages of the source."}
{"smiles": "COc1ccc(C(C)=O)c(O)c1", "note": "[PA, paeonol]", "values": [{"measurement": "reduction of HRV-4 RNA replication level", "setting": "HRV-4 [1]", "result": 16.3, "unit": "fold"}, {"measurement": "effect on HRV-induced ICAM-1 mRNA expression", "setting": "ICAM-1", "result": "reduced"}, {"measurement": "effect on LDLR protein expression", "setting": "LDLR [2]", "result": "no effect"}, {"measurement": "inhibition at 100 µg/mL", "setting": "HRV-4 [3]; [5]", "result": 57.2, "unit": "%"}, {"measurement": "inhibition at 100 µg/mL", "setting": "HRV-4 [3]; [6]", "result": "≤ 40", "unit": "%"}, {"measurement": "effect on HRV-induced IL-1β mRNA expression", "setting": "IL-1β", "result": "disappeared or was significantly reduced"}, {"measurement": "TLR3 mRNA expression vs cultures without treatment", "setting": "TLR3", "result": "significantly lower"}, {"measurement": "effect on LDLR mRNA expression", "setting": "LDLR [4]", "result": "decreased"}, {"measurement": "reduction of HRV-2 RNA replication level", "setting": "HRV-2", "result": 30.1, "unit": "fold"}, {"measurement": "sICAM-1 levels in supernatants vs cultures without treatment", "setting": "sICAM-1", "result": "significantly lower"}, {"measurement": "mICAM-1 protein levels vs cultures without treatment", "setting": "mICAM-1", "result": "similar"}]}
{"smiles": "O=C(OC[C@H]1O[C@@H](OC(=O)c2cc(O)c(O)c(O)c2)[C@H](OC(=O)c2cc(O)c(O)c(O)c2)[C@@H](OC(=O)c2cc(O)c(O)c(O)c2)[C@@H]1OC(=O)c1cc(O)c(O)c(O)c1)c1cc(O)c(O)c(O)c1", "note": "[PGG, 1,2,3,4,6-penta-O-galloyl-β-D-glucopyranose]", "values": [{"measurement": "reduction of HRV-4 RNA replication level", "setting": "HRV-4 [1]", "result": 15.1, "unit": "fold"}, {"measurement": "effect on HRV-induced ICAM-1 mRNA expression", "setting": "ICAM-1", "result": "reduced"}, {"measurement": "effect on LDLR protein expression", "setting": "LDLR [2]", "result": "sharp decline"}, {"measurement": "inhibition at 20 µg/mL", "setting": "HRV-4 [3]; [5]", "result": 54.5, "unit": "%"}, {"measurement": "inhibition at 20 µg/mL", "setting": "HRV-4 [3]; [6]", "result": "≤ 40", "unit": "%"}, {"measurement": "effect on HRV-induced IL-1β mRNA expression", "setting": "IL-1β", "result": "disappeared or was significantly reduced"}, {"measurement": "TLR3 mRNA expression vs cultures without treatment", "setting": "TLR3", "result": "significantly lower"}, {"measurement": "effect on LDLR mRNA expression", "setting": "LDLR [4]", "result": "decreased"}, {"measurement": "reduction of HRV-2 RNA replication level", "setting": "HRV-2", "result": 14.3, "unit": "fold"}, {"measurement": "sICAM-1 levels in supernatants vs cultures without treatment", "setting": "sICAM-1", "result": "significantly lower"}, {"measurement": "mICAM-1 protein levels vs cultures without treatment", "setting": "mICAM-1", "result": "similar"}]}
